Laboratory results reported in US20190029252A1, “Use of Herbicide-tolerant Protein” (BEIJING DABEINONG TECHNOLOGY GROUP CO., LTD., priority 2016, published 2019).

Assays:
Type in all cases: in vivo
[1] = tested on: transformed Arabidopsis thaliana T1 plants (ALT-1, ALT-2 and ALT-3); experiment: Herbicide tolerance of transgenic Arabidopsis thaliana T1 plants, overall conclusion; details: all transformed Arabidopsis thaliana T1 plants; 1-fold field concentration
Text: (§1) Plants were counted for the resistance situations 14 days after spraying: those having a consistent growth status with the blank solvent (water) group after 14 days were classified as highly resistant plants, those having a bolting height less than ½ of that of the blank solvent (water) group after 14 days were classified as moderately resistant plants, those still not capable of bolting after 14 days were classified as poorly resistant plants, and those dead after 14 days were classified as non-resistant plants. Since each Arabidopsis thaliana T1 plant was an independent transformation event, a significant difference in individual T1 responses could be expected at a given dose.
as §1, with “situation” for “situations”

[2] = tested on: At chloroplastic ALT-1-01 T1 plants; experiment: Herbicide tolerance of Arabidopsis thaliana T1 plants, sprayed, resistance classes counted 14 days after spraying; details: sprayed at 1-fold field concentration
Text: (§2) T1 transformants were initially selected from the background of untransformed seeds using a glufosinate selection scheme. About 40000 T1 seeds were screened, and 380 T1 positive transformants (PAT gene) were identified with a transformation efficiency of about 0.95%. The plants that were transformed with the recombinant expression vector DBN100632 were Arabidopsis thaliana plants having an ALT-1-01 nucleotide sequence located in the cytoplasm introduced (At cytoplasmic ALT-1-01), and the plants that were transformed with the recombinant expression vector DBN100631 were Arabidopsis thaliana plants having an ALT-1-01 nucleotide sequence located in the chloroplast introduced (At chloroplastic ALT-1-01); the plants that were transformed with the recombinant expression vector DBN100634 were Arabidopsis thaliana plants having an ALT-2-01 nucleotide sequence located in the cytoplasm introduced (At cytoplasmic ALT-2-01), and the plants that were transformed with the recombinant expression vector DBN100633 were Arabidopsis thaliana plants having an ALT-2-01 nucleotide sequence located in the chloroplast introduced (At chloroplastic ALT-2-01); and the plants that were transformed with the recombinant expression vector DBN100636 were Arabidopsis thaliana plants having an ALT-3-01 nucleotide sequence located in the cytoplasm introduced (At cytoplasmic ALT-3-01), and the plants that were transformed with the recombinant expression vector DBN100635 were Arabidopsis thaliana plants having an ALT-3-01 nucleotide sequence located in the chloroplast introduced (At chloroplastic ALT-3-01).
as §1
as §1, with “situation” for “situations”

[3] = tested on: At cytoplasmic ALT-2-01 T1 plants; experiment: as above; details: sprayed at 1-fold field concentration
Text: as §2, §1
as §1, with “situation” for “situations”

[4] = tested on: At cytoplasmic ALT-3-01 T1 plants; experiment: as above; details: sprayed at 1-fold field concentration
Text: as §2, §1
as §1, with “situation” for “situations”

[5] = tested on: At chloroplastic ALT-2-01 T1 plants; experiment: as above; details: sprayed at 1-fold field concentration
Text: as §2, §1
as §1, with “situation” for “situations”

[6] = tested on: At chloroplastic ALT-3-01 T1 plants; experiment: as above; details: sprayed at 1-fold field concentration
Text: as §2, §1
as §1, with “situation” for “situations”

[7] = tested on: At cytoplasmic ALT-1-01 T1 plants; experiment: as above; details: sprayed at 1-fold field concentration
Text: as §2, §1
as §1, with “situation” for “situations”

[8] = tested on: wild-type Arabidopsis thaliana plants; experiment: Herbicide tolerance of Arabidopsis thaliana plants, sprayed, resistance classes counted 14 days after spraying; details: wild-type; sprayed at 1-fold field concentration; 14 days after spraying
Text: as §2, §1
as §1, with “situation” for “situations”

[9] = tested on: Gm cytoplasmic ALT-2-01 soybean plants; experiment: Glyphosate tolerance of soybean plants, herbicide damage rate; details: 840 g ae/ha (1-fold field concentration), 14 DAT
Text: (§3) The herbicide tolerance effects of Gm cytoplasmic ALT-1-01 soybean plants, Gm chloroplastic ALT-1-01 soybean plants, Gm cytoplasmic ALT-2-01 soybean plants, Gm chloroplastic ALT-2-01 soybean plants, Gm cytoplasmic ALT-3-01 soybean plants, Gm chloroplastic ALT-3-01 soybean plants and wild-type soybean plants on glyphosate were detected (at seedling stage), respectively.
(§4) 2 strains from Gm cytoplasmic ALT-1-01 soybean plants, Gm chloroplastic ALT-1-01 soybean plants, Gm cytoplasmic ALT-2-01 soybean plants, Gm chloroplastic ALT-2-01 soybean plants, Gm cytoplasmic ALT-3-01 soybean plants, Gm chloroplastic ALT-3-01 soybean plants and wild-type soybean plants were respectively taken each, and 10-15 plants were selected from each strain and tested. The plants above were sprayed with glyphosate (840 g ae/ha, 1-fold field concentration) and a blank solvent (water). The herbicide damage rate was measured for each plant according to the phytotoxicity symptoms 14 days after spraying (14 DAT): herbicide damage rate (%)=Σ(number of damaged plants at the same level× level number)/(total number of plants×highest level).

[10] = tested on: Gm chloroplastic ALT-3-01 soybean plants; experiment: as above; details: 840 g ae/ha (1-fold field concentration), 14 DAT
Text: as §3, §4

[11] = tested on: Gm cytoplasmic ALT-1-01 soybean plants; experiment: as above; details: 840 g ae/ha (1-fold field concentration), 14 DAT
Text: as §3, §4

[12] = tested on: Gm chloroplastic ALT-1-01 soybean plants; experiment: as above; details: 840 g ae/ha (1-fold field concentration), 14 DAT
Text: as §3, §4

[13] = tested on: wild-type soybean plants (CK1); experiment: as above; details: 840 g ae/ha (1-fold field concentration), 14 DAT
Text: as §3, §4

[14] = tested on: Gm chloroplastic ALT-2-01 soybean plants; experiment: as above; details: 840 g ae/ha (1-fold field concentration), 14 DAT
Text: as §3, §4

[15] = tested on: Gm cytoplasmic ALT-3-01 soybean plants; experiment: as above; details: 840 g ae/ha (1-fold field concentration), 14 DAT
Text: as §3, §4

Structure (SMILES): COC(=O)c1ccc(CNS(C)(=O)=O)cc1S(=O)(=O)NC(=O)Nc1nc(OC)cc(OC)n1 [mesosulfuron]
- ability of the transformed plants to degrade the herbicide (in words) [1]: did not exhibit the ability to degrade
- Highly resistant (number of plants) [2]: 0
- Moderately resistant (number of plants) [2]: 0
- Non-resistant (number of plants) [2]: 32
- Poorly resistant (number of plants) [2]: 0
- Highly resistant (number of plants) [3]: 0
- Moderately resistant (number of plants) [3]: 0
- Non-resistant (number of plants) [3]: 32
- Poorly resistant (number of plants) [3]: 0
- Highly resistant (number of plants) [4]: 0
- Moderately resistant (number of plants) [4]: 0
- Non-resistant (number of plants) [4]: 30
- Poorly resistant (number of plants) [4]: 0
- Highly resistant (number of plants) [5]: 0
- Moderately resistant (number of plants) [5]: 0
- Non-resistant (number of plants) [5]: 30
- Poorly resistant (number of plants) [5]: 0
- Highly resistant (number of plants) [6]: 0
- Moderately resistant (number of plants) [6]: 0
- Non-resistant (number of plants) [6]: 32
- Poorly resistant (number of plants) [6]: 0
- Highly resistant (number of plants) [7]: 0
- Moderately resistant (number of plants) [7]: 0
- Non-resistant (number of plants) [7]: 29
- Poorly resistant (number of plants) [7]: 0
- Highly resistant (number of plants) [8]: 0
- Moderately resistant (number of plants) [8]: 0
- Non-resistant (number of plants) [8]: 28
- Poorly resistant (number of plants) [8]: 0

Structure (SMILES): Cc1cc(C)nc(NC(=O)NS(=O)(=O)c2ccccc2C(=O)OC2COC2)n1 [oxasulfuron]
- ability of the transformed plants to degrade the herbicide (in words) [1]: did not exhibit the ability to degrade
- Highly resistant (number of plants) [2]: 0
- Moderately resistant (number of plants) [2]: 0
- Non-resistant (number of plants) [2]: 30
- Poorly resistant (number of plants) [2]: 0
- Highly resistant (number of plants) [3]: 0
- Moderately resistant (number of plants) [3]: 0
- Non-resistant (number of plants) [3]: 30
- Poorly resistant (number of plants) [3]: 0
- Highly resistant (number of plants) [4]: 0
- Moderately resistant (number of plants) [4]: 0
- Non-resistant (number of plants) [4]: 30
- Poorly resistant (number of plants) [4]: 0
- Highly resistant (number of plants) [5]: 0
- Moderately resistant (number of plants) [5]: 0
- Non-resistant (number of plants) [5]: 30
- Poorly resistant (number of plants) [5]: 0
- Highly resistant (number of plants) [6]: 0
- Moderately resistant (number of plants) [6]: 0
- Non-resistant (number of plants) [6]: 31
- Poorly resistant (number of plants) [6]: 0
- Highly resistant (number of plants) [7]: 0
- Moderately resistant (number of plants) [7]: 0
- Non-resistant (number of plants) [7]: 28
- Poorly resistant (number of plants) [7]: 0
- Highly resistant (number of plants) [8]: 0
- Moderately resistant (number of plants) [8]: 0
- Non-resistant (number of plants) [8]: 28
- Poorly resistant (number of plants) [8]: 0

Structure (SMILES): COC(=O)c1ccc(I)cc1S(=O)(=O)NC(=O)Nc1nc(C)nc(OC)n1 [iodosulfuron-methyl]
- ability of the transformed plants to degrade the herbicide (in words) [1]: did not exhibit the ability to degrade
- Highly resistant (number of plants) [2]: 0
- Moderately resistant (number of plants) [2]: 0
- Non-resistant (number of plants) [2]: 30
- Poorly resistant (number of plants) [2]: 0
- Highly resistant (number of plants) [3]: 0
- Moderately resistant (number of plants) [3]: 0
- Non-resistant (number of plants) [3]: 30
- Poorly resistant (number of plants) [3]: 0
- Highly resistant (number of plants) [4]: 0
- Moderately resistant (number of plants) [4]: 0
- Non-resistant (number of plants) [4]: 30
- Poorly resistant (number of plants) [4]: 0
- Highly resistant (number of plants) [5]: 0
- Moderately resistant (number of plants) [5]: 0
- Non-resistant (number of plants) [5]: 31
- Poorly resistant (number of plants) [5]: 0
- Highly resistant (number of plants) [6]: 0
- Moderately resistant (number of plants) [6]: 0
- Non-resistant (number of plants) [6]: 32
- Poorly resistant (number of plants) [6]: 0
- Highly resistant (number of plants) [7]: 0
- Moderately resistant (number of plants) [7]: 0
- Non-resistant (number of plants) [7]: 29
- Poorly resistant (number of plants) [7]: 0
- Highly resistant (number of plants) [8]: 0
- Moderately resistant (number of plants) [8]: 0
- Non-resistant (number of plants) [8]: 29
- Poorly resistant (number of plants) [8]: 0

Structure (SMILES): O=C(O)CNCP(=O)(O)O [glyphosate, N-phosphonomethylglycine]
- glyphosate herbicide damage rate [9]: ~0%
- glyphosate herbicide damage rate [10]: ~0%
- glyphosate herbicide damage rate [11]: ~0%
- glyphosate herbicide damage rate [12]: ~0%
- glyphosate herbicide damage rate [13]: not less than 90%
- glyphosate herbicide damage rate [14]: ~0%
- glyphosate herbicide damage rate [15]: ~0%
